Experimental data taken from the SangsterLogP compilation.

Columns and labels:
[1] = not given; remark: listed apart in the source
[2] = not given; remark: listed apart in the source
[3] = not given; remark: listed apart in the source
[4] = method code HPLC, from DOI: 10.1016/j.ejmech.2015.05.022, PMID: 26005028; conditions: pH 7.1
[5] = not given; remark: listed apart in the source
[6] = method code SF-GLC, from DOI: 10.1021/je970020p
[7] = not given; remark: listed apart in the source
[8] = method code SF-RC, from DOI: 10.1021/jm901332c, PMID: 19921956; conditions: pH 7.4
[9] = not given; remark: listed apart in the source
[10] = method code SF-AS, from DOI: 10.1039/ft9938903773
[11] = method code SF-AS, from DOI: 10.1016/0045-6535(84)90003-1
[12] = not given; remark: listed apart in the source
[13] = method code SF-FL, from DOI: 10.1016/0006-2952(96)00248-1, PMID: 8687500
[14] = method code SF-HPLC, from DOI: 10.1021/jm00169a024, PMID: 2194033; conditions: pH 7.4
[15] = method code SF-AS, from PMID: 640322; conditions: pH 4.0
[16] = method code SF-AS, from DOI: 10.1111/j.2042-7158.1989.tb06384.x, PMID: 2576447; conditions: pH 7.4
[17] = method code SF-GLC, from DOI: 10.1016/0043-1354(83)90068-4
[18] = not given; remark: listed apart in the source
[19] = method code SF-HPLC, from DOI: 10.1016/j.jchromb.2013.02.012, PMID: 23500352; conditions: pH 4.4
[20] = method code SF, from DOI: 10.1016/0006-2952(91)90449-f, PMID: 1930261; conditions: pH 2.0
[21] = not given; remark: listed apart in the source
[22] = method code HPLC, from DOI: 10.1016/j.bmcl.2004.01.062, PMID: 15026043; conditions: pH 5.5
[23] = not given; remark: listed apart in the source
[24] = pH 5.6
[25] = method code SF-GLC, from DOI: 10.1021/jm00240a002, PMID: 1151965
[26] = not given; remark: listed apart in the source
[27] = not given; remark: listed apart in the source
[28] = method code SF, from DOI: 10.1093/jnci/60.2.345, PMID: 621753
[29] = method code SF-GLC, from Park, Y.; Park, S. (2000). Determination and prediction of octanol/water partition coefficients and air-water partition coefficients for environmental toxic chemicals. 11(7)773-779.
[30] = not given; remark: listed apart in the source
[31] = method code SF-RC, from DOI: 10.1002/ps.2780190203
[32] = method code SF-AS, from DOI: 10.1002/qua.560100722; conditions: pH 7.8
[33] = method code SF-HPLC, from DOI: 10.1016/j.bmcl.2004.01.062, PMID: 15026043; conditions: pH 5.5

SMILES: Nc1ccc(F)cc1F
- logP: 1.56

SMILES: c1ccc(-c2ccccc2)cc1
- logP: 4.05

SMILES: OCCBr
- logP [1]: 0.29

SMILES: C=CC(=O)OCC(C)(C)C
- logP [2]: 2.32

SMILES: CCCOC(C)=O
- logP [3]: 1.11

SMILES: CCCNC(=O)CBr
- logD [4]: 0.91

SMILES: COc1ccc(CC2C(=O)NC(C)C(=O)N(C)C3Cc4ccc(cc4)Oc4cc(ccc4OC)CC(C(=O)NC(C)C(=O)NC(C)C(=O)N2C)N(C)C3=O)cc1 (stereo unspecified)
- logP [5]: 3.17

SMILES: Clc1cc(Cl)c(Cl)c(Cl)c1Cl
- logP [6]: 5.2

SMILES: Oc1c(Cl)cccc1Cl
- logP [7]: 2.92

SMILES: Cn1cnc2c(Br)ncnc21
- logD [8]: 0.52

SMILES: COc1ccc(CC2C(=O)NC(C)C(=O)N(C)C3Cc4ccc(cc4)Oc4cc(ccc4OC(C)=O)CC(C(=O)NC(C)C(=O)NC(C)C(=O)N2C)N(C)C3=O)cc1 (stereo unspecified)
- logP [5]: 3.19

SMILES: Nc1ncnc2nn[nH]c12
- logP [9]: -0.96

SMILES: O=C1C=CC(=O)c2c(O)ccc(O)c21
- logP [10]: 1.79

SMILES: Oc1c(Cl)ccc(Cl)c1Cl
- logP [11]: 3.77

SMILES: CC(C)(C)CO
- logP [1]: 1.29

SMILES: COc1ccnnc1
- logP [12]: 0.24

SMILES: COc1cccc2c1C(=O)c1c(O)c3c(c(O)c1C2=O)C[C@@](O)(C(C)=O)C[C@@H]3O[C@H]1C[C@H](NC(=O)Cc2ccccc2NC(=O)[C@@H]2O[C@H](C(=O)O)[C@@H](O)[C@H](O)[C@H]2O)[C@H](O)[C@H](C)O1
- logP [13]: -1.1

SMILES: CCN1CC(C(O)C(CC2CCCCC2)NC(=O)C(Cc2cnc[nH]2)NC(=O)N(Cc2ccc(OC)cc2)C(=O)N(C)CCOCOC)OC1=O (stereo unspecified)
- logD [14]: 2.3

SMILES: CCCCN(N=O)C(N)=O
- logD [15]: 1.04

SMILES: Cn1c(=O)[nH]c(=O)c2nc[nH]c21
- logD [16]: -0.72

SMILES: BrC=C(Br)Br
- logP [17]: 3.2

SMILES: Oc1c(Cl)c(Cl)cc(Cl)c1Cl
- logP [7]: 4.47

SMILES: O=[N+]([O-])c1ccc(Cl)c(Cl)c1Cl
- logP [18]: 3.54

SMILES: CS(=O)(=O)OC[C@H](O)[C@@H]1CO1
- logD [19]: -1.18

SMILES: O=C1NC(=O)C(O)C(=O)N1
- logD [20]: -1.85

SMILES: O=C1NC(=O)C(=O)C(=O)N1
- logD [20]: -1.86

SMILES: Cc1cc(C(=O)N2Cc3ccc(C(=O)N(C)CCF)n3Cc3ccccc32)ccc1-c1ccccc1C(F)(F)F
- logP [21]: 5.2

SMILES: O=c1[nH]cnc2c1ncn2[C@@H]1O[C@H](CO)[C@@H](O)[C@H]1O
- logP [9]: -1.81

SMILES: NC(=O)N(CCCCCCN(N=O)C(N)=O)N=O
- logD [15]: 0.58

SMILES: CCOC(=O)C(Cc1ccc(OC(=O)N(C)C)cc1)NC(=O)C1N(S(=O)(=O)c2cnn(C)c2)CSC1(C)C (stereo unspecified)
- logD [22]: 2.14

SMILES: Oc1c(F)c(F)c(F)c(F)c1F
- logP [23]: 2.96

SMILES: C=CC(=O)OC
- logP [2]: 0.74

SMILES: COc1ccc(CC2C(=O)NC(C)C(=O)N(C)C3Cc4ccc(cc4)Oc4cc(ccc4O)CC(C(=O)NC(C)C(=O)NC(C)C(=O)N2C)N(C)C3=O)cc1 (stereo unspecified)
- logP [5]: 2.72

SMILES: CS(=O)(=O)OC[C@H](O)[C@@H](O)COS(C)(=O)=O
- logD [19]: -1.58

SMILES: CCOc1cccc(O)c1
- logD [24]: 1.98

SMILES: O=[N+]([O-])c1ccc(CCBr)cc1
- logP [18]: 2.9

SMILES: O=C1C=CC(=O)C=C1
- logP [10]: 0.3

SMILES: CCOCC
- logP [25]: 0.89

SMILES: CCN1C[C@H]([C@@H](O)[C@H](CC2CCCCC2)NC(=O)[C@@H](Cc2cnc[nH]2)NC(=O)[C@@H](Cc2ccc(OC)cc2)NC(=O)N(C)CCOCOCCOC)OC1=O
- logD [14]: 2.03

SMILES: CC(=O)OC[C@H]1O[C@@H](OC(C)=O)[C@H](NC(=O)CBr)[C@@H](OC(C)=O)[C@@H]1OC(C)=O
- logD [4]: 0.23

SMILES: Nc1ccc(O)c([N+](=O)[O-])c1
- logP [26]: 0.96

SMILES: c1ccnnc1
- logP [12]: -0.15

SMILES: Nc1c(Cl)c(Cl)cc(Cl)c1Cl
- logP [27]: 4.06

SMILES: CN(C)C(=O)Oc1ccc(CC(NC(=O)C2N(S(=O)(=O)c3cnn(C)c3)CSC2(C)C)C(=O)OCOC(=O)C(C)(C)C)cc1 (stereo unspecified)
- logD [22]: 3.14

SMILES: Clc1cc(Cl)cc(Cl)c1
- logP [6]: 4.09

SMILES: Nc1ccccc1N
- logP [26]: 0.15

SMILES: Cc1cc(C(=O)N2Cc3ccc(C(=O)N(CCO)CCO)n3Cc3ccccc32)ccc1-c1ccccc1CCF
- logP [21]: 3.14

SMILES: CCN1CC(C(O)C(CC2CCCCC2)NC(=O)[C@H](Cc2cnc[nH]2)NC(=O)[C@H](Cc2ccc(OC)cc2)NC(=O)N(C)CC(O)CO)OC1=O (stereo partly specified)
- logD [14]: 1.42

SMILES: Nc1cc(Cl)c(Cl)cc1Cl
- logP [27]: 3.31

SMILES: BrC1CCCCC1
- logP [17]: 3.2

SMILES: Oc1ccc(Cl)c(Cl)c1Cl
- logP [11]: 3.8

SMILES: COc1cccc2c1C(=O)c1c(O)c3c(c(O)c1C2=O)C[C@@](O)(C(C)=O)C[C@@H]3O[C@H]1C[C@H](NC(=O)OCc2ccc(NC(=O)[C@@H]3O[C@H](C(=O)O)[C@@H](O)[C@H](O)[C@H]3O)cc2)[C@H](O)[C@H](C)O1
- logP [13]: -1.7

SMILES: CCCCCC(C)=O
- logP [3]: 2.08

SMILES: O=NN(CCCl)C(=O)N1CCCC1
- logP [28]: 0.9

SMILES: CC(=O)CC(C)C
- logP [29]: 1.4

SMILES: CC(C)CC(=O)NC(N)=O
- logP [30]: 0.45

SMILES: O=c1ccc(O)n[nH]1
- logP [31]: -0.63

SMILES: COc1cccc2c1C(=O)c1c(O)c3c(c(O)c1C2=O)CC(O)(C(C)=O)CC3OC1CC(NC(=O)CN)C(O)C(C)O1 (stereo unspecified)
- logD [32]: 0.64

SMILES: C1CCOC1
- logP [29]: 0.5

SMILES: Cn1cnc2c(Cl)ncnc21
- logD [8]: 0.38

SMILES: O=NN(CCCl)C(=O)NCCO
- logP [28]: 0.3

SMILES: COc1cccc2c1C(=O)c1c(O)c3c(c(O)c1C2=O)C[C@@](O)(C(C)=O)C[C@@H]3O[C@H]1C[C@H](NC(=O)CCCNC(=O)[C@@H]2O[C@H](C(=O)O)[C@@H](O)[C@H](O)[C@H]2O)[C@H](O)[C@H](C)O1
- logP [13]: -2

SMILES: Cc1cc(C(=O)N2Cc3ccc(C(=O)N(CCO)CCF)n3Cc3ccccc32)ccc1-c1ccccc1C(F)(F)F
- logP [21]: 4.89

SMILES: CC(C)C(=O)NC(N)=O
- logP [30]: 0.04

SMILES: COCCOCCOC(=O)C(Cc1ccc(OC(=O)N(C)C)cc1)NC(=O)C1N(S(=O)(=O)c2cnn(C)c2)CSC1(C)C (stereo unspecified)
- logD [33]: 1.41

SMILES: NS(=O)(=O)c1ccc(O)cc1
- logD [24]: 0.06

SMILES: FC(F)OC(F)(F)C(F)Cl (stereo unspecified)
- logP [25]: 2.1

SMILES: CCCn1c(=O)n(C)c(=O)c2nc[nH]c21
- logD [16]: 1.02

SMILES: Cc1cc(OCC(=O)O)ccc1S(C)(=O)=O
- logP [31]: 0.54

SMILES: Oc1cccc(Br)c1Br
- logP [23]: 3.37

SMILES: CN(C)C(=O)Oc1ccc(CC(C(=O)OCC(C)(C)C)C(=O)C2N(S(=O)(=O)c3cnn(C)c3)CSC2(C)C)cc1 (stereo unspecified)
- logD [33]: 3.42
